Test results: US6875761B2 (Eisai Co., Ltd., priority 1997, dated 2005)
Where a name gives a salt, the structure may show the parent alone.

First: CCS(=O)(=O)NCc1ccc(-c2cc3ccccc3c(N3CCN(CCO)CC3)n2)cc1 (as salt: hydrochloride) [Example 243, 3-(4-ethylsulfonylaminomethylphenyl)-1-[4-(2-hydroxyethyl)piperazin-1-yl]isoquinoline Hydrochloride]
Second: CCN1CCN(c2nc(-c3ccc(CCCO)cc3)cc3cccnc23)CC1 (as salt: hydrochloride) [Example 247, 8-(1-ethylpiperazin-4-yl)-6-[4-(3-hydroxypropyl)phenyl]-1,7-naphthyridine Dihydrochloride]
The melting point of the first is higher: 171 to 174 °C for the first, 119 to 122 °C for the second.

Compared with CCN1CCN(c2nc(-c3ccc(OCCO)cc3)cc3cccnc23)CC1 (as salt: hydrochloride) [Example 245, 8-(1-ethylpiperazin-4-yl)-6-[4-(2-hydroxyethoxy)phenyl]-1,7-naphthyridine Dihydrochloride], CCN1CCN(c2nc(-c3ccc(OCC(C)(C)O)cc3)cc3cccnc23)CC1 (as salt: hydrochloride) [Example 250, 8-(1-ethylpiperazin-4-yl)-6-[4-(2-hydroxy-2-methylpropoxy)phenyl]-1,7-naphthyridine Dihydrochloride] is lower in melting point: 137 to 143 °C for the first, 127 to 132 °C for the second.

First: CCN1CCN(c2nc(-c3ccc(CCC(C)O)cc3)cc3cccnc23)CC1 (stereo not shown) (as salt: hydrochloride) [Example 248, 8-(1-ethylpiperazin-4-yl)-6-[4-(3-hydroxybutyl)phenyl]-1,7-naphthyridine Dihydrochloride]
Second: CCN1CCN(c2nc(-c3ccc(C(F)CCO)cc3)cc3cccnc23)CC1 (stereo not shown) (as salt: hydrochloride) [Example 249, 8-(1-ethylpiperazin-4-yl)-6-[4-(3-hydroxy-1-fluoropropyl)phenyl]-1,7-naphthyridine Dihydrochloride]
The melting point of the first is lower: 118 to 121 °C for the first, 123 to 125 °C for the second.

Compared with CCN1CCN(c2nc(-c3ccc(OC)cc3)cc3ncccc23)CC1 (as salt: hydrochloride) [Example 252, 5-(1-ethylpiperazin-4-yl)-7-(4-methoxyphenyl)-1,6-naphthyridine Dihydrochloride], CCN1CCN(c2nc(-c3ccc(OCC(C)(C)O)cc3)cc3ccsc23)CC1 (as salt: hydrochloride) [Example 260, 7-(1-Ethylpiperazin-4-yl)-5-[4-(2-hydroxy-2-methylpropoxy)phenyl]thieno[2,3-c]pyridine dihydrochloride] is lower in melting point: 242 to 245 °C for the first, 137 to 139 °C for the second.

First: CN1CCN(c2nc(-c3ccc(OCCO)cc3)cc3ccsc23)CC1 (as salt: hydrochloride) [Example 253, 5-[4-(2-hydroxyethoxy)phenyl]-7-(4-methylpiperazin-1-yl)thieno[2,3-c]pyridine Hydrochloride]
Second: CCN1CCN(c2nc(-c3ccc(OCCO)cc3)cc3ccsc23)CC1 (as salt: hydrochloride) [Example 259, 7-(4-ethylpiperazin-1-yl)-5-(4-hydroxyethoxyphenyl)thieno[2,3-c]pyridine Hydrochloride]
The melting point of the first is higher: 141 to 143 °C for the first, 135 to 136 °C for the second.

First: CCN1CCN(c2nc(-c3cccc(OCCO)c3)cc3ccsc23)CC1 (as salt: hydrochloride) [Example 258, 7-(1-ethylpiperazin-4-yl)-5-[3-(2-hydroxyethoxy)phenyl]thieno[2,3-c]pyridine Dihydrochloride]
Second: CCN1CCN(c2nc(-c3ccc(N4CCOCC4)nc3)cc3ccsc23)CC1 (as salt: hydrochloride) [Example 263, 5-[2-(4-morpholinyl)pyridin-5-yl]-7-(4-ethylpiperazin-1-yl)thieno[2,3-c]pyridine Hydrochloride]
The melting point of the first is lower: 132 to 135 °C for the first, 182 to 185 °C for the second.

CCN1CCN(c2nc(-c3ccc(N4CCSCC4)nc3)cc3ccsc23)CC1 (as salt: hydrochloride) [Example 264, 5-[2-(4-thiomorpholinyl)pyridin-5-yl]-7-(4-ethylpiperazine-1-yl)thieno[2,3-c]pyridine Hydrochloride] gave a melting point of 201 to 203 °C.
